In patent publication US9437446B2, “Slurry for chemical mechanical polishing and chemical mechanical polishing method” (KURARAY CO., LTD., priority 2012, dated 2016):

Key:
[1] = pKa of the amino group (conjugated acid) of the amino compound used in the slurry; conditions: water

Description: Such value of the pKa can be measured by the potentiometric titration method. In the present specification, the pKa of the amino group is “pKa of conjugated acid of the amino group”.

| Structure (SMILES) | pKa [1] | pKa (physchem) |
| --- | --- | --- |
| CCCCNCCO [2-(butylamino)ethanol] | 10 | – |
| CCNC[C@H](O)[C@@H](O)[C@H](O)[C@H](O)CO [N-ethyl glucamine, N-ethylglucamine] | 9.5 | – |
| N[C@H]1C(O)O[C@H](CO)[C@@H](O)[C@@H]1O (stereo partly shown) [glucosamine] | 7.6 | – |
